Measured values taken from patent US20070015733A1, “Aryl Phosphate Derivatives of d4T having Activity Against Resistant HIV Strains” (Parker Hughes Institute, priority 1998, published 2007).
Like-named read-outs stand apart in the source and are kept apart here.

Legend:
Assay type in all cases: cell-based
HIV-2 (Strain: CBL-20) = experiment: Inhibition of HIV-2 replication in PBMNC (RT activity)
Procedure: (P-AZT) and with AZT. The incubation and analysis methods used were as described above for Example 3.
(§1) Cellular Assays of Anti-HIV Activity and Cytotoxicity. […] Percent viral inhibition was calculated by comparing the RT activity values from the test substance-treated infected cells with RT values from untreated infected cells (i.e., virus controls).

[1] = tested on: AZT- and NNI-resistant HIV-1 (strain: RTMDR-1); experiment: Inhibition of RTMDR-1 (HIV-MDR) replication in PBMNC (RT activity)
Procedure: as §1

[2] = tested on: zidovudine-resistant primary clinical HIV-1 isolates; experiment: p24 drug susceptibility assay, NRTI-/zidovudine-resistant primary clinical HIV-1 isolates in PBMC
Procedure: Viruses. […] The HIV-1 strains HTLVIIIB (wildtype RT, NRTI-sensitive, NNRTI-sensitive), A17 (Y181 C mutant, NNRTI-resistant), A17-variant (Y181C+K103N mutant, NNRTI-resistant), and RT-MDR (M41 L, V106N, T215Y; NRTI-resistant, NNRTI-resistant) were also obtained from the AIDS Research and Reference Reagent Program, NIAID.
Antiviral susceptibility assays. Phenotypic drug susceptibility studies of HIV-1 isolates and strains were performed by measuring the production of the p24 gag protein in peripheral blood mononuclear cells (PBMC) from seronegative healthy volunteers in the presence of increasing concentrations of the anti-HIV agent using the quantitative Coulter HIV-1 p24 antigen ezyme immunoassay (EIA) and HIV-1 p24 Antigen Kinetic Standard (Beckman Coulter), as previously described (Uckun, 1998, Antimicrobial Agents and Chemotherapy 37(4): 835-38). Informed consent was obtained from the blood donors according to DHHS guidelines using consent forms approved by the Institutional Review Board. In brief, PBMC were cultured for 72 h in RPMI 1640 medium (Gibco) supplemented with 20% (vol/vol) heat-inactivated fetal bovine serum, 5% human interleukin-2 (Zeptometrix), 2 mM L-glutamine, 25 mM HEPES, 2 g/L NaHCO3, 100 U/ml penicillin/streptomycin (Gibco), 50 μg/ml gentamicin (Gibco), and 5 μg/ml phytohemagglutinin-P (PHA-P) (Sigma) for 24-72 hours prior to exposure to HIV at a multiplicity of infection of 0.001-0.1 during a 1-h adsorbtion period at 37±1° C. in a humidified 5-7% CO2 atmosphere. Subsequently, cells were cultured in 96-well microtiter plates (100 μl/well; 2×10^6 cells/ml, triplicate wells) in the presence of the anti-HIV agents at 6-7 different concentrations ranging from 0.0001 μM to 100 μM, and 25 μL aliquots of culture supernatants were removed from the wells on day 6 after infection for p24 EIA, as previously described (Uckun, 1998, Antimicrobial Agents and Chemotherapy, 37(4):835-38). Controls included uninfected and untreated cells (background control) and infected but untreated (virus control) cells. The p24 EIA utilizes a murine monoclonal antibody to HIV core protein used to coat microwell strips to which the antigen present in the test culture supernatant samples binds. Percent inhibition of viral replication was calculated by comparing the p24 values from the test substance-treated infected cells with p24 values from untreated infected cells (i.e., virus controls). The IC50 values were determined using the Statview statistics program (SAS Institute, Inc.). In parallel, the effects of various treatments on cell viability were also examined as previously described (Uckun, 1998, Antimicrobial Agents and Chemotherapy, 42:383-388). In brief, noninfected PBMC were treated with each compound for 5 days under identical experimental conditions. A microculture tetrazolium assay (MTA) was performed to quantitate cellular proliferation (Uckun, 1998, Antimicrobial Agents and Chemotherapy, 42:383-388).
Phenotypic drug susceptibility studies of HIV-1 isolates and strains were performed by measuring the production of the p24 gag protein in peripheral blood mononuclear cells (PBMC) from seronegative healthy volunteers in the presence of increasing concentrations of the anti-HIV agent using the quantitative Coulter HIV-1 p24 antigen enzyme immunoassay (EIA) and HIV-1 p24 Antigen Kinetic Standard (Beckman Coulter), as previously described. StatView was used in the calculation of the IC50 values from each set of triplicate wells using the linearized form of an exponential equation (lnY=lnb0+b1X; where Y=% inhibition, X=drug concentration). The inhibition constants were log10 transformed to homogenize the variances within each group. […] P-values below 0.05 were deemed significant (JMP Software, SAS).

[3] = tested on: NRTI-resistant recombinant HIV-1 isolates; experiment: p24 assay, multi-NRTI-resistant recombinant HIV-1 clones
[4] = tested on: NRTI-resistant recombinant HIV-1 isolates; experiment: Documented fold decreased susceptibility of recombinant HIV-1 clones

SMILES: Cc1cn([C@H]2C[C@H](N=[N+]=[N-])[C@@H](CO)O2)c(=O)[nH]c1=O [AZT, 3′-azido-3′-deoxythymidine]
- IC50 (HIV-2 (Strain: CBL-20); Human immunodeficiency virus 2, Table 3, unit inferred, read-out: HIV-2 IC50 [RT]): 2400 nM
- antiviral activity against HIV-2 (in words) (HIV-2 (Strain: CBL-20); PBMNC): not effective
- IC50 ([1]; Human immunodeficiency virus 1, read-out: HIV-MDR IC50 [RT]): 2000 nM
- IC50 ([1]; Human immunodeficiency virus 1, read-out: IC50 against HIV-MDR): 2000 nM
- IC50 ([1]; Human immunodeficiency virus 1, read-out: RTMDR-1 IC50 [RT]): 2000 nM
- antiviral activity against RTMDR-1 (in words) ([1]; PBMNC): not effective
- IC50 ([2]; Human immunodeficiency virus 1, PBMC, isolate 92BR019 (D67N, L214F, T215D, K219Q), PBMC): 0.2 µM
- IC50 ([2]; Human immunodeficiency virus 1, PBMC, isolate C140 (M41L, M184V, T215Y), PBMC): 0.1 µM
- IC50 ([2]; Human immunodeficiency virus 1, PBMC, isolate C140, PBMC, p24): 0.1 µM
- IC50 ([2]; Human immunodeficiency virus 1, PBMC, isolate C467-4 (K20R, D67N, K70R, Y188L, T215F, K219Q), PBMC): 3.2 µM
- IC50 ([2]; Human immunodeficiency virus 1, PBMC, isolate G190-6, PBMC, p24): > 3.2 µM
- IC50 ([2]; Human immunodeficiency virus 1, PBMC, isolate G691-2 (mutations N.D.), PBMC): 2.6 µM
- IC50 ([2]; Human immunodeficiency virus 1, PBMC, isolate G704-2, PBMC, p24): 1.8 µM
- IC50 ([2]; Human immunodeficiency virus 1, PBMC, isolate G780-1 (M41L, D67N, K70R, T215F, K219Q), PBMC): > 3.2 µM
- IC50 ([2]; Human immunodeficiency virus 1, PBMC, isolate G780-1, PBMC, p24): > 3.2 µM
- IC50 ([2]; Human immunodeficiency virus 1, PBMC, isolate G890-1 (K20R, M41L, D67N, T69N, K70R, L210W, T215Y), PBMC): > 3.2 µM
- IC50 ([2]; Human immunodeficiency virus 1, PBMC, isolate G890-1, PBMC, p24): > 3.2 µM
- IC50 ([2]; Human immunodeficiency virus 1, PBMC, isolate P798-1 (M41L, T215Y), PBMC): 1.8 µM
- IC50 ([2]; Human immunodeficiency virus 1, PBMC, isolate Q252-2 (M41L, L210W, T215Y), PBMC): 1.7 µM
- IC50 ([2]; Human immunodeficiency virus 1, PBMC, isolate R416-10 (M41L, T215Y), PBMC): 0.3 µM
- IC50 ([2]; Human immunodeficiency virus 1, PBMC, isolate S159-2 (M41L, K103N, T215Y), PBMC): 0.7 µM
- IC50 ([2]; Human immunodeficiency virus 1, PBMC, isolate S762-4 (M41L, T215Y), PBMC): 1.2 µM
- IC50 ([2]; Human immunodeficiency virus 1, PBMC, isolate T156-3 (M41L, E44D, D67N, T69D, L210W, T215Y), PBMC): > 3.2 µM
- IC50 ([2]; Human immunodeficiency virus 1, PBMC, isolate T156-3, PBMC, p24): > 3.2 µM
- IC50 ([2]; Human immunodeficiency virus 1, PBMC, isolate X165-8 (D67N, T69N, K70R, K103N, Y181C, T215F, K219E), PBMC): 0.9 µM
- IC50 ([2]; Human immunodeficiency virus 1, PBMC, isolate X165-9 (K20R, D67N, K103N, T215Y), PBMC): 0.9 µM
- IC50 ([2]; Human immunodeficiency virus 1, PBMC, isolate X267-1 (L74V), PBMC, p24): 0.6 µM
- IC50 ([2]; Human immunodeficiency virus 1, PBMC, isolate X267-1 (M41L, L74V, L210W, T215Y), PBMC): 0.6 µM
- IC50 ([2]; Human immunodeficiency virus 1, PBMC, isolate X267-2 (M41L, T215Y), PBMC): 0.4 µM
- IC50 ([2]; Human immunodeficiency virus 1, PBMC, isolate X267-5 (M41L, F116S, T215Y), PBMC): 0.6 µM
- IC50 ([2]; Human immunodeficiency virus 1, PBMC, isolate Y270-7 (M41W, Y188L, T215N), PBMC): 1.5 µM
- IC50 ([2]; Human immunodeficiency virus 1, PBMC, read-out: IC50, μM, Mean ± SE, mean over 20 zidovudine-resistant primary clinical isolates): 1.6 ± 0.5 µM
- IC50 ([2]; Human immunodeficiency virus 1, PBMC, read-out: mean IC50 value, NRTI-resistant isolates with 5 thymidine analog mutations (Group 1 in Table 19)): 2.6 µM
- IC50 ([2]; Human immunodeficiency virus 1, PBMC, read-out: mean IC50 value, isolates with M184V plus multiple thymidine analog mutations (Group 2 in Table 19)): 0.134 ± 0.0188 µM
- IC50 ([2]; isolate G704-2 (M41L, D67N, K70R, L210W, T215Y), PBMC, listed as zidovudine): > 10 µM
- IC50 ([2]; isolate G910-6 (M41L, D67N, K70R, T215Y, K219Q), PBMC, listed as ZDV(AZT)): > 3.2 µM
- IC50 ([2]; isolate G910-6 (M41L, D67N, K70R, T215Y, K219Q), PBMC, listed as zidovudine): > 10 µM
- IC50 ([3]; Human immunodeficiency virus 1, read-out: IC50 (nM), p24, recombinant clone 1617-1 (151 complex)): 320 nM
- IC50 ([3]; Human immunodeficiency virus 1, read-out: IC50 (nM), p24, recombinant clone 4755-5): 165 nM
- IC50 ([3]; Human immunodeficiency virus 1, read-out: IC50 (nM), p24, recombinant clone 7295-1): 137 nM
- IC50 ([3]; Human immunodeficiency virus 1, read-out: IC50 (nM), p24, recombinant clone 7324-1): > 1000 nM
- IC50 ([3]; Human immunodeficiency virus 1, read-out: IC50 (nM), p24, recombinant clone 52252-1 in Table 18, 56252-1 in Tables 19 and 20 (K65R, 151 complex)): > 1000 nM
- IC50 ([3]; Human immunodeficiency virus 1, read-out: IC50 (nM), p24, recombinant clone printed 52534-1 in Table 18, 52534-2 in Tables 19 and 20 (69 insertion complex)): > 1000 nM
- IC50 ([3]; Human immunodeficiency virus 1, read-out: mean IC50 value, recombinant clones with 151 complex or 69 insertion complex (Group 3+Group 4)): 773 ± 227 nM
- mean reduction in susceptibility ([4]; mean over 6 recombinant clones): 495.7 fold
- median reduction in susceptibility ([4]; median over 6 recombinant clones): 490 fold
